The values below come from the NIST ThermoML archive (doi:10.1021/je700448v).

Numbers after ± are expanded uncertainties.

For data set [1] the following is noted: Crystal; DTA.
The nature of data set [2]: Molar enthalpy of transition or fusion. The settings on record: Crystal; DSC.

In the case of `O=Cc1ccc(Br)cc1` [4-bromobenzaldehyde], the Normal melting temperature in data set [1] stood at 61.1 ± 0.4 °C. For the same molecule, the “Molar enthalpy of transition or fusion” value in data set [2] stood at 5.41 ± 0.124 kcal/mol.
